Test results from ChEMBL document CHEMBL3608278 (J Med Chem, 2015).

Experiments:
[1] = molecular target: T1, Potassium voltage-gated channel subfamily A member 3 (Homo sapiens, UniProt P22001); type: cell-based, CHO-K1
[2] = molecular target: T1, Potassium voltage-gated channel subfamily A member 3; assay: cell-based; design: species or system Blood
[3] = molecular target: T1, Potassium voltage-gated channel subfamily A member 3; design: species or system Blood

T1 sequence (P22001 whole entry): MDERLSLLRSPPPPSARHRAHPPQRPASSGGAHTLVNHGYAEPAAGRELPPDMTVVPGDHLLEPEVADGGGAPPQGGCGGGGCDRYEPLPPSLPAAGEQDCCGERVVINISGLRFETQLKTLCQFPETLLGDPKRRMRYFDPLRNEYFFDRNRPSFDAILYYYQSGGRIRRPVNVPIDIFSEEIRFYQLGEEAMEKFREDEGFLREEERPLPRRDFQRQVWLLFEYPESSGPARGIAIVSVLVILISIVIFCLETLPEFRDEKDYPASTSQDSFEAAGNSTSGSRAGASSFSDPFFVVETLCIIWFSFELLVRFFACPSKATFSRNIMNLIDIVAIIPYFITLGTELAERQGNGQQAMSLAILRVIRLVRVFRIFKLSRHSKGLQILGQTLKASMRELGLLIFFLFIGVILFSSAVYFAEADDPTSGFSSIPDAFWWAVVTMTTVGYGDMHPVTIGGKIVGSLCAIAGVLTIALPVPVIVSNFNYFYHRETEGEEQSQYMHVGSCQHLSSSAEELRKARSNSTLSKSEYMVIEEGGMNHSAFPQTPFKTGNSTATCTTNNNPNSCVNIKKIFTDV

| Compound | IC50 [1] [nM] | IC50 [2] [nM] | IC50 [3] [nM] |
| --- | --- | --- | --- |
| CC[C@H](C)[C@@H]1NC(=O)[C@@H](NC(=O)[C@H](CO)NC(=O)[C@@H](N)CCCNC(=N)N)CSSC[C@@H](C(=O)O)NC(=O)[C@H]([C@@H](C)O)NC(=O)CNC(=O)[C@@H]2CSSC[C@@H]3NC(=O)[C@H](CCC(N)=O)NC(=O)[C@H](Cc4ccccc4)NC(=O)[C@H](C)NC(=O)[C@H]([C@@H](C)O)NC(=O)[C@H](CSSC[C@H](NC(=O)[C@H](Cc4ccccc4)NC(=O)[C@H](CO)NC(=O)[C@H](CC(C)C)NC(=O)[C@H](CCCNC(=N)N)NC(=O)[C@H](Cc4ccc(O)cc4)NC(=O)[C@H](CCCCN)NC(=O)[C@H](CCSC)NC(=O)[C@H](CO)NC(=O)[C@H](Cc4cnc[nH]4)NC(=O)[C@H](CCCCN)NC3=O)C(=O)N[C@@H](CCCNC(=N)N)C(=O)N[C@@H](CCCCN)C(=O)N[C@@H]([C@@H](C)O)C(=O)N2)NC(=O)[C@H](CCCNC(=N)N)NC(=O)[C@H](CO)NC(=O)[C@H](CCCCN)NC(=O)[C@@H]2CCCN2C(=O)[C@H](CCC(=O)O)NC(=O)[C@H]([C@@H](C)O)NC(=O)[C@H](CC(=O)O)NC1=O | 1.31 | 5 | 19.5 |
| CC[C@H](C)[C@@H]1NC(=O)[C@@H](NC(=O)[C@H](CO)NC(=O)[C@@H](N)CCCNC(=N)N)CSSC[C@@H](C(=O)O)NC(=O)[C@H]([C@@H](C)O)NC(=O)CNC(=O)[C@@H]2CSSC[C@@H]3NC(=O)[C@H](CCC(N)=O)NC(=O)[C@H](Cc4ccccc4)NC(=O)[C@H](C)NC(=O)[C@H]([C@@H](C)O)NC(=O)[C@H](CSSC[C@H](NC(=O)[C@H](CCC(=O)O)NC(=O)[C@H](CO)NC(=O)[C@H](CC(C)C)NC(=O)[C@H](CCCNC(=N)N)NC(=O)[C@H](Cc4ccc(O)cc4)NC(=O)[C@H](CCCCN)NC(=O)[C@H](CCSC)NC(=O)[C@H](CO)NC(=O)[C@H](Cc4cnc[nH]4)NC(=O)[C@H](CCCCN)NC3=O)C(=O)N[C@@H](CCCNC(=N)N)C(=O)N[C@@H](CCCCN)C(=O)N[C@@H]([C@@H](C)O)C(=O)N2)NC(=O)[C@H](CCCNC(=N)N)NC(=O)[C@H](CO)NC(=O)[C@H](CCCCN)NC(=O)[C@@H]2CCCN2C(=O)[C@H]([C@@H](C)CC)NC(=O)[C@H]([C@@H](C)O)NC(=O)[C@H](CC(=O)O)NC1=O | > 3.33 | 8.16 | 34 |
| CC[C@H](C)[C@@H]1NC(=O)[C@@H](NC(=O)[C@H](CO)NC(=O)[C@@H](N)CCCNC(=N)N)CSSC[C@@H](C(=O)O)NC(=O)[C@H]([C@@H](C)O)NC(=O)CNC(=O)[C@@H]2CSSC[C@@H]3NC(=O)[C@H](CCC(N)=O)NC(=O)[C@H](Cc4ccccc4)NC(=O)[C@H](C)NC(=O)[C@H]([C@@H](C)O)NC(=O)[C@H](CSSC[C@H](NC(=O)[C@H](Cc4ccccc4)NC(=O)[C@H](CO)NC(=O)[C@H](CC(C)C)NC(=O)[C@H](CCCNC(=N)N)NC(=O)[C@H](Cc4ccc(O)cc4)NC(=O)[C@H](CCCCN)NC(=O)[C@H](CCCCN)NC(=O)[C@H](CO)NC(=O)[C@H](Cc4cnc[nH]4)NC(=O)[C@H](CCCCN)NC3=O)C(=O)N[C@@H](CCCNC(=N)N)C(=O)N[C@@H](CCCCN)C(=O)N[C@@H]([C@@H](C)O)C(=O)N2)NC(=O)[C@H](CCCNC(=N)N)NC(=O)[C@H](CO)NC(=O)[C@H](CCCCN)NC(=O)[C@@H]2CCCN2C(=O)[C@H]([C@@H](C)CC)NC(=O)[C@H]([C@@H](C)O)NC(=O)[C@H](CC(=O)O)NC1=O | 0.798 | 3.59 | 4.82 |
| CC[C@H](C)[C@@H]1NC(=O)[C@@H](NC(=O)[C@H](CO)NC(=O)[C@@H](N)CCCNC(=N)N)CSSC[C@@H](C(=O)O)NC(=O)[C@H](C)NC(=O)CNC(=O)[C@@H]2CSSC[C@@H]3NC(=O)[C@H](CCC(N)=O)NC(=O)[C@H](Cc4ccccc4)NC(=O)[C@H](C)NC(=O)[C@H]([C@@H](C)O)NC(=O)[C@H](CSSC[C@H](NC(=O)[C@H](Cc4ccccc4)NC(=O)[C@H](CO)NC(=O)[C@H](CC(C)C)NC(=O)[C@H](CCCNC(=N)N)NC(=O)[C@H](Cc4ccc(O)cc4)NC(=O)[C@H](CCCCN)NC(=O)[C@H](CCSC)NC(=O)[C@H](CO)NC(=O)[C@H](Cc4cnc[nH]4)NC(=O)[C@H](CCCCN)NC3=O)C(=O)N[C@@H](CCCNC(=N)N)C(=O)N[C@@H](CCCCN)C(=O)N[C@@H]([C@@H](C)O)C(=O)N2)NC(=O)[C@H](CCCNC(=N)N)NC(=O)[C@H](CO)NC(=O)[C@H](CCCCN)NC(=O)[C@@H]2CCCN2C(=O)[C@H]([C@@H](C)CC)NC(=O)[C@H]([C@@H](C)O)NC(=O)[C@H](CC(=O)O)NC1=O | 0.133 | 0.053 | 0.083 |
| CC[C@H](C)[C@@H]1NC(=O)[C@@H](NC(=O)[C@H](CO)NC(=O)[C@@H](N)CCCNC(=N)N)CSSC[C@@H](C(=O)O)NC(=O)[C@H]([C@@H](C)O)NC(=O)CNC(=O)[C@@H]2CSSC[C@@H]3NC(=O)[C@H](CCCNC(=N)N)NC(=O)[C@H](Cc4ccccc4)NC(=O)[C@H](C)NC(=O)[C@H]([C@@H](C)O)NC(=O)[C@H](CSSC[C@H](NC(=O)[C@H](Cc4ccccc4)NC(=O)[C@H](CO)NC(=O)[C@H](CC(C)C)NC(=O)[C@H](CCCNC(=N)N)NC(=O)[C@H](Cc4ccc(O)cc4)NC(=O)[C@H](CCCCN)NC(=O)[C@H](CCSC)NC(=O)[C@H](CO)NC(=O)[C@H](Cc4cnc[nH]4)NC(=O)[C@H](CCCCN)NC3=O)C(=O)N[C@@H](CCCNC(=N)N)C(=O)N[C@@H](CCCCN)C(=O)N[C@@H]([C@@H](C)O)C(=O)N2)NC(=O)[C@H](CCCNC(=N)N)NC(=O)[C@H](CO)NC(=O)[C@H](CCCCN)NC(=O)[C@@H]2CCCN2C(=O)[C@H]([C@@H](C)CC)NC(=O)[C@H]([C@@H](C)O)NC(=O)[C@H](CC(=O)O)NC1=O | 0.166 | 0.372 | 0.492 |
| CC[C@H](C)[C@@H]1NC(=O)[C@@H](NC(=O)[C@H](Cc2cccc3ccccc23)NC(=O)[C@@H](N)CCCNC(=N)N)CSSC[C@@H](C(=O)O)NC(=O)[C@H]([C@@H](C)O)NC(=O)CNC(=O)[C@@H]2CSSC[C@@H]3NC(=O)[C@H](CCC(N)=O)NC(=O)[C@H](Cc4ccccc4)NC(=O)[C@H](C)NC(=O)[C@H]([C@@H](C)O)NC(=O)[C@H](CSSC[C@H](NC(=O)[C@H](Cc4ccccc4)NC(=O)[C@H](CO)NC(=O)[C@H](CC(C)C)NC(=O)[C@H](CCCNC(=N)N)NC(=O)[C@H](Cc4ccc(O)cc4)NC(=O)[C@H](CCCCN)NC(=O)[C@H](CCSC)NC(=O)[C@H](CO)NC(=O)[C@H](Cc4cnc[nH]4)NC(=O)[C@H](CCCCN)NC3=O)C(=O)N[C@@H](CCCNC(=N)N)C(=O)N[C@@H](CCCCN)C(=O)N[C@@H]([C@@H](C)O)C(=O)N2)NC(=O)[C@H](CCCNC(=N)N)NC(=O)[C@H](CO)NC(=O)[C@H](CCCCN)NC(=O)[C@@H]2CCCN2C(=O)[C@H]([C@@H](C)CC)NC(=O)[C@H]([C@@H](C)O)NC(=O)[C@H](CC(=O)O)NC1=O | 0.257 | 0.223 | 0.258 |
| CC[C@H](C)[C@@H]1NC(=O)[C@@H](NC(=O)[C@H](CO)NC(=O)[C@@H](N)CCCNC(=N)N)CSSC[C@@H](C(=O)O)NC(=O)[C@H]([C@@H](C)O)NC(=O)CNC(=O)[C@@H]2CSSC[C@@H]3NC(=O)[C@H](CCC(N)=O)NC(=O)[C@H](Cc4ccccc4)NC(=O)[C@H](C)NC(=O)[C@H]([C@@H](C)O)NC(=O)[C@H](CSSC[C@H](NC(=O)[C@H](Cc4ccccc4)NC(=O)[C@H](CO)NC(=O)[C@H](CC(C)C)NC(=O)[C@H](CCCNC(=N)N)NC(=O)[C@H](C)NC(=O)[C@H](CCCCN)NC(=O)[C@H](CCSC)NC(=O)[C@H](CO)NC(=O)[C@H](Cc4cnc[nH]4)NC(=O)[C@H](CCCCN)NC3=O)C(=O)N[C@@H](CCCNC(=N)N)C(=O)N[C@@H](CCCCN)C(=O)N[C@@H]([C@@H](C)O)C(=O)N2)NC(=O)[C@H](CCCNC(=N)N)NC(=O)[C@H](CO)NC(=O)[C@H](CCCCN)NC(=O)[C@@H]2CCCN2C(=O)[C@H]([C@@H](C)CC)NC(=O)[C@H]([C@@H](C)O)NC(=O)[C@H](CC(=O)O)NC1=O | 0.261 | 3.09 | 5.67 |
| CC[C@H](C)[C@@H]1NC(=O)[C@@H](NC(=O)[C@H](CO)NC(=O)[C@@H](N)CCCNC(=N)N)CSSC[C@@H](C(=O)O)NC(=O)[C@H]([C@@H](C)O)NC(=O)CNC(=O)[C@@H]2CSSC[C@@H]3NC(=O)[C@H](CCC(N)=O)NC(=O)[C@H](Cc4ccccc4)NC(=O)[C@H](C)NC(=O)[C@H]([C@@H](C)O)NC(=O)[C@H](CSSC[C@H](NC(=O)[C@H](Cc4ccccc4)NC(=O)[C@H](CO)NC(=O)[C@H](CC(C)C)NC(=O)[C@H](CCCNC(=N)N)NC(=O)[C@H](Cc4ccc(O)cc4)NC(=O)[C@H](CCCCN)NC(=O)[C@H](CCSC)NC(=O)[C@H](CO)NC(=O)[C@H](Cc4c[nH]cn4)NC(=O)[C@H](CCCCN)NC3=O)C(=O)N[C@@H](CCCNC(=N)N)C(=O)N[C@@H](CCCCN)C(=O)N[C@@H](CCCNC(=N)N)C(=O)N2)NC(=O)[C@H](CCCNC(=N)N)NC(=O)[C@H](CO)NC(=O)[C@H](CCCCN)NC(=O)[C@@H]2CCCN2C(=O)[C@H]([C@@H](C)CC)NC(=O)[C@H]([C@@H](C)O)NC(=O)[C@H](CC(=O)O)NC1=O | > 3.33 | 11.1 | 39 |
| CC[C@H](C)[C@@H]1NC(=O)[C@@H](NC(=O)[C@H](CO)NC(=O)[C@@H](N)CCCNC(=N)N)CSSC[C@@H](C(=O)O)NC(=O)[C@H]([C@@H](C)O)NC(=O)CNC(=O)[C@@H]2CSSC[C@@H]3NC(=O)[C@H](CCC(N)=O)NC(=O)[C@H](Cc4ccccc4)NC(=O)[C@H](C)NC(=O)[C@H]([C@@H](C)O)NC(=O)[C@H](CSSC[C@H](NC(=O)[C@H](Cc4ccccc4)NC(=O)[C@H](CO)NC(=O)[C@H](CC(C)C)NC(=O)[C@H](CCCNC(=N)N)NC(=O)[C@H](Cc4ccc(O)cc4)NC(=O)[C@H](CCCCN)NC(=O)[C@H](CCSC)NC(=O)[C@H](CO)NC(=O)[C@H](Cc4cnc[nH]4)NC(=O)[C@H](CCCCN)NC3=O)C(=O)N[C@@H](CCCCN)C(=O)N[C@@H](CCCCN)C(=O)N[C@@H]([C@@H](C)O)C(=O)N2)NC(=O)[C@H](CCCNC(=N)N)NC(=O)[C@H](CO)NC(=O)[C@H](CCCCN)NC(=O)[C@@H]2CCCN2C(=O)[C@H]([C@@H](C)CC)NC(=O)[C@H]([C@@H](C)O)NC(=O)[C@H](CC(=O)O)NC1=O | 0.293 | 0.041 | 0.071 |
